In ChEMBL document CHEMBL5214954, “Identification of PI3K/HDAC Dual-targeted inhibitors with subtype selectivity as potential therapeutic agents against solid Tumors: Building HDAC6 potency in a Quinazolinone-based PI3Kδ-selective template” (Bioorg Med Chem, 2022):

Columns and labels:
[1] = biological target: Phosphatidylinositol 4,5-bisphosphate 3-kinase catalytic subunit gamma isoform (Homo sapiens, UniProt P48736); assay: Inhibition of PI3Kgamma (unknown origin) measured by ADP-Glo assay
[2] = Cytotoxicity against HUVEC cells incubated for 72 hrs by CCK-8 assay; settings: human
[3] = Clearance in male Sprague-Dawley rat at 2 mg/kg, iv measured upto 24 hrs by LC-MS/MS analysis; format: ADME, organism-based; settings: in vivo
[4] = biological target: Phosphatidylinositol 4,5-bisphosphate 3-kinase catalytic subunit alpha isoform (Homo sapiens, UniProt P42336); assay: Inhibition of PI3Kalpha (unknown origin) measured by ADP-Glo assay
[5] = system: SU-DHL-6; assay: Antiproliferative activity against human SU-DHL-6 cells incubated for 72 hrs by CCK-8 assay; format: functional, cell-based; settings: SU-DHL-6, 72 h
[6] = Cmax in male Sprague-Dawley rat at 2 mg/kg, iv measured upto 24 hrs by LC-MS/MS analysis; format: ADME, organism-based; parameters: time < 24 hrs, dose 2 mg/kg, route iv; settings: in vivo
[7] = system: T47D; assay: Antiproliferative activity against human T47D cells incubated for 72 hrs by CCK-8 assay; format: functional, cell-based
[8] = system: T47D; assay: Downregulation of pSTAT3 expression in IL-6-stimulated human T47D cells at 10 to 1000 nM measured by western blot analysis; format: functional, cell-based; settings: dose 10-1000 nM, DDE = dose-dependent effect
[9] = system: HCT-116; assay: Antiproliferative activity against human HCT-116 cells incubated for 72 hrs by CCK-8 assay; format: functional, cell-based; settings: HCT-116, 72 h
[10] = system: T47D; assay: Downregulation of pAKT expression in human T47D cells at 10 to 1000 nM measured by western blot analysis; format: functional, cell-based; settings: dose 10-1000 nM, DDE = dose-dependent effect
[11] = biological target: T1, Protein deacetylase HDAC6 (Homo sapiens, UniProt Q9UBN7)
T1 sequence (Q9UBN7 whole entry): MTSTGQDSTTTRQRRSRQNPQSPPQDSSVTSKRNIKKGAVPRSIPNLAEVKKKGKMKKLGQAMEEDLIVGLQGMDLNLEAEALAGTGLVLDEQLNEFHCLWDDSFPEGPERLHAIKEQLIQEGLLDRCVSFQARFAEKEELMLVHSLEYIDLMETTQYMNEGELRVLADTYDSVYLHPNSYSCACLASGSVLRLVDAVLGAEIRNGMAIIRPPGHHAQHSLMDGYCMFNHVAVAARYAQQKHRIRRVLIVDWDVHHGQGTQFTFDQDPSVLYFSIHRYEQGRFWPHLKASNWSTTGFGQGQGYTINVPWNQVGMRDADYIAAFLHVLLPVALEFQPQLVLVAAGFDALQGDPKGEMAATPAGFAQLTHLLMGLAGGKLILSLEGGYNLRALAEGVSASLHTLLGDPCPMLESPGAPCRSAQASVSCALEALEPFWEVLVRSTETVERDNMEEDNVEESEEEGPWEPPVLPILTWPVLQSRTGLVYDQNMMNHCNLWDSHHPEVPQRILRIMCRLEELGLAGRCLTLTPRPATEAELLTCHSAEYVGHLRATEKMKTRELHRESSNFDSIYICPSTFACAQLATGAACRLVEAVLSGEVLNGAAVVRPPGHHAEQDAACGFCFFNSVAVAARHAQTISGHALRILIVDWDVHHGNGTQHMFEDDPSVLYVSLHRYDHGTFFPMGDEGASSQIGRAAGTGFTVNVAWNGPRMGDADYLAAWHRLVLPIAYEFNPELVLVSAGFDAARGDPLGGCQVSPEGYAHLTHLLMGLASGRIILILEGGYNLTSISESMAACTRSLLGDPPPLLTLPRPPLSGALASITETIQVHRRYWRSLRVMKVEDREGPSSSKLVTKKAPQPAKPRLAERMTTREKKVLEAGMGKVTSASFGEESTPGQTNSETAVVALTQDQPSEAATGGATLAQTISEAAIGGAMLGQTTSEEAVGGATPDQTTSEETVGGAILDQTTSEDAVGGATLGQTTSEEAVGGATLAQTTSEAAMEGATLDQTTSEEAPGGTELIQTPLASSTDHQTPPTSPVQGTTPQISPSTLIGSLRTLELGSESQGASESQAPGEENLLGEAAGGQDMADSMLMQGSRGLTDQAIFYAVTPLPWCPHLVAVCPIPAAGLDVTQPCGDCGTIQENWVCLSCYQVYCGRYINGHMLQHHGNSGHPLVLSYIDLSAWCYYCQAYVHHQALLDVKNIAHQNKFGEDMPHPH
Description: Inhibition of HDAC6 (unknown origin) measured by fluorescence based assay

[12] = AUC (0 to infinity) in male Sprague-Dawley rat at 2 mg/kg, iv measured upto 24 hrs by LC-MS/MS analysis; format: ADME, organism-based; parameters: time < 24 hrs, dose 2 mg/kg, route iv; settings: in vivo
[13] = biological target: Histone deacetylase 1 (Homo sapiens, UniProt Q13547)
Description: Inhibition of HDAC1 (unknown origin) measured by fluorescence based assay

[14] = organism: Homo sapiens; assay: Selectivity ratio, ratio IC50 for inhibition of PI3Kgamma (unknown origin) to IC50 for inhibition of PI3Kdelta (unknown origin)
[15] = system: KM12; assay: Antiproliferative activity against human KM12 cells incubated for 72 hrs by CCK-8 assay; format: functional, cell-based; settings: KM12, 72 h
[16] = Half life in male Sprague-Dawley rat at 2 mg/kg, iv measured upto 24 hrs by LC-MS/MS analysis; format: ADME, organism-based; settings: in vivo
[17] = biological target: T2, Histone deacetylase 11 (Homo sapiens, UniProt Q96DB2)
T2 sequence (Q96DB2 whole entry): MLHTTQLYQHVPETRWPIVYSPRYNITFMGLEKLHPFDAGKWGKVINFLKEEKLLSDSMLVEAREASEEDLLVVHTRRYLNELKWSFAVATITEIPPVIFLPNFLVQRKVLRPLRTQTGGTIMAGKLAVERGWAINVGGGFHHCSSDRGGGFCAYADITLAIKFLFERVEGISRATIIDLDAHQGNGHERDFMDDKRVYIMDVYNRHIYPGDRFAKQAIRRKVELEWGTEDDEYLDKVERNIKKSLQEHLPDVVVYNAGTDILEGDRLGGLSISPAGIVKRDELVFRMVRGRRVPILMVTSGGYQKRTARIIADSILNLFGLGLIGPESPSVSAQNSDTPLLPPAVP
Description: Inhibition of HDAC11 (unknown origin) measured by fluorescence based assay

[18] = biological target: T3, Histone deacetylase 8 (Homo sapiens, UniProt Q9BY41)
T3 sequence (Q9BY41 whole entry): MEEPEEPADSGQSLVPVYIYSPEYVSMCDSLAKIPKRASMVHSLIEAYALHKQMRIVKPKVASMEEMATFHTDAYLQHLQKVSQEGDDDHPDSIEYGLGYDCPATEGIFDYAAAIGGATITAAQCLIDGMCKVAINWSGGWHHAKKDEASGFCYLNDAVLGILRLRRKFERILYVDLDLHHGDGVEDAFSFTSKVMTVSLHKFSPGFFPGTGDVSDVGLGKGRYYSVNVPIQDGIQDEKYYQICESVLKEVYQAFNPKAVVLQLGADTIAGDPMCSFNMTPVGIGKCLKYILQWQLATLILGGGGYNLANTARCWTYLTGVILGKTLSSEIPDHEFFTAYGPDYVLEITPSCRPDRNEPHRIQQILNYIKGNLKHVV
Description: Inhibition of HDAC8 (unknown origin) measured by fluorescence based assay

[19] = organism: Homo sapiens; assay: Selectivity ratio, ratio IC50 for inhibition of PI3Kalpha (unknown origin) to IC50 for inhibition of PI3Kdelta (unknown origin)

Chain of Phosphatidylinositol 4,5-bisphosphate 3-kinase catalytic subunit alpha isoform (P42336 whole entry, canonical isoform): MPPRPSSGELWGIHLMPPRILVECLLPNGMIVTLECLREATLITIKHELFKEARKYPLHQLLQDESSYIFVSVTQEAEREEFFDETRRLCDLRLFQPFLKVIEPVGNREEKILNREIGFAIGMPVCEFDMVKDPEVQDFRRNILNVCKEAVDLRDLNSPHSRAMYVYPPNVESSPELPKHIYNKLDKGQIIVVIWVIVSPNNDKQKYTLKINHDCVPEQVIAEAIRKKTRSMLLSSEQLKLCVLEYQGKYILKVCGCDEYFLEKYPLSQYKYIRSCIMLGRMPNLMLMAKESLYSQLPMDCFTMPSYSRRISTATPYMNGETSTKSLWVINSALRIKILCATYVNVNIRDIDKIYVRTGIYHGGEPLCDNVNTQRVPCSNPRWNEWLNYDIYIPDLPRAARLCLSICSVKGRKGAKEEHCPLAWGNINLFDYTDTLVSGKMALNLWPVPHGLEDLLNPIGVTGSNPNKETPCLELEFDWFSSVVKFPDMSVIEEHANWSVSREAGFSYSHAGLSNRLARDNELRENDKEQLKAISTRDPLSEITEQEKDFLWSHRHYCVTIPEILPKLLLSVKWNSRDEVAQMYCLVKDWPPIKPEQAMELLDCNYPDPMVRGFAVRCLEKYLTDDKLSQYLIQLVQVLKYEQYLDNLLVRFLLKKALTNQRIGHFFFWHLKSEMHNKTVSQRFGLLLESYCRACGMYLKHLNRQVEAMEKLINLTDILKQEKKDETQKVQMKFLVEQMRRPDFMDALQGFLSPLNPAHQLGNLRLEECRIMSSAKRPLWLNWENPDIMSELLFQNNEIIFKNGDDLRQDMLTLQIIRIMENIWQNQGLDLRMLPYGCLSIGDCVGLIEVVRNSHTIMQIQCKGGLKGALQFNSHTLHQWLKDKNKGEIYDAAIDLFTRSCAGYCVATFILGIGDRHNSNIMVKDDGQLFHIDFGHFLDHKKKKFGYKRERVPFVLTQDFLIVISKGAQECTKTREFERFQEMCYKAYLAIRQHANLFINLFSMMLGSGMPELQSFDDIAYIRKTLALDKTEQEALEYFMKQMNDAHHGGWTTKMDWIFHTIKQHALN
Chain of Phosphatidylinositol 4,5-bisphosphate 3-kinase catalytic subunit gamma isoform (P48736 whole entry, canonical isoform): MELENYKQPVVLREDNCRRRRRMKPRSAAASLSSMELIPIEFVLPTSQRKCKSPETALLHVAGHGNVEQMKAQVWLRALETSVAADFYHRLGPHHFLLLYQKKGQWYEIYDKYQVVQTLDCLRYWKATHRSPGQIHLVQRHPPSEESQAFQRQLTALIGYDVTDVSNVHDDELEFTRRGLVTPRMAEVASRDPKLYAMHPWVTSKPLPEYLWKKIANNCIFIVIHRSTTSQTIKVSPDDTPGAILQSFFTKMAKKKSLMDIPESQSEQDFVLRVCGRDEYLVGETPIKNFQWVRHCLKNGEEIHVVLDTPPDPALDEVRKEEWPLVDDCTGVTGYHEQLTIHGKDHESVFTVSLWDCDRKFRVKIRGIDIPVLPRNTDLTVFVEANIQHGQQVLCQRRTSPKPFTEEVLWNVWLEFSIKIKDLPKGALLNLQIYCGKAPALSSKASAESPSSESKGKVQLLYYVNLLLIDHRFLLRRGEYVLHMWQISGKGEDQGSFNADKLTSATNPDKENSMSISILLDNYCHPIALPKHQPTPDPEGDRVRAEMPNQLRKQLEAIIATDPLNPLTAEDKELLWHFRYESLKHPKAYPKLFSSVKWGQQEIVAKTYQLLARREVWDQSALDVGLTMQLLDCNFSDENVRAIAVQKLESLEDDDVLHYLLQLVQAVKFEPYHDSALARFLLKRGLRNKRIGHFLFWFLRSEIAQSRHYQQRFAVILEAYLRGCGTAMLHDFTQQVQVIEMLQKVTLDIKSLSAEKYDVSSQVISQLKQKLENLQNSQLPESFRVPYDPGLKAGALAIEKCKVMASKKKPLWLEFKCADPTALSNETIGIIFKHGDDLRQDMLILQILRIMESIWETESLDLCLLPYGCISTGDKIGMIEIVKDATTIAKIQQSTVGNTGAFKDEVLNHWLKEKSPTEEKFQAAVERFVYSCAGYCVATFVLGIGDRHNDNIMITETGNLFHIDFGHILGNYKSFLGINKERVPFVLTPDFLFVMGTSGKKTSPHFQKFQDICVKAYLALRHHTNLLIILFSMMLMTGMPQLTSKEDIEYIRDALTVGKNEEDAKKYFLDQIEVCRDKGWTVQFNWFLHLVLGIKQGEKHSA
Chain of Histone deacetylase 1 (Q13547 whole entry): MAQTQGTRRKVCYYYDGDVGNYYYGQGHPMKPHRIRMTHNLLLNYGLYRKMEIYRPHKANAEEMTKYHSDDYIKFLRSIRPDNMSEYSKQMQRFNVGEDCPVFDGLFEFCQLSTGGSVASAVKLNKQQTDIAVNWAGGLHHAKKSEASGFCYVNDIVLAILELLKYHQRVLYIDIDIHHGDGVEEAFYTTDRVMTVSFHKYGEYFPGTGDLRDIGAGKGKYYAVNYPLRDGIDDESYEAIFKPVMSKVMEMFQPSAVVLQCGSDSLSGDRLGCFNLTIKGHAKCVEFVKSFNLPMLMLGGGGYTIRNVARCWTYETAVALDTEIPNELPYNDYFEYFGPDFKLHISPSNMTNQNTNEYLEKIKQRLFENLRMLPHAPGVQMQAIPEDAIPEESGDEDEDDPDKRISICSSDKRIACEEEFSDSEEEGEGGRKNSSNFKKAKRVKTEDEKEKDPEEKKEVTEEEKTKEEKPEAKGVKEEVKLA

IC50 [1]: 0.0305 µM
clearance [3]: 53 mL/min/kg
IC50 [4]: 0.169 µM
IC50 [5]: 0.15 µM
Cmax [6]: 2120 ng/mL
IC50 [7]: 0.042 µM
IC50 [9]: 0.8 µM
IC50 [11]: 0.013 µM
AUC(0-inf) [12]: 632 ng·h/mL
IC50 [13]: 0.23 µM
Ratio IC50 [14]: 13
half-life [16]: 27.6 min
IC50 [17]: 1.55 µM
IC50 [18]: > 5 µM
Ratio IC50 [19]: 73
Structure (SMILES): N#Cc1c(N)nc(N)nc1N1CC2(CC2)C[C@H]1c1nc2cccc(Cl)c2c(=O)n1Cc1ccc(C(=O)NO)s1
IC50 at 72 h [2]: 37 µM
Activity [8]: Dde
Activity [10]: Dde
IC50 [15]: 1.19 µM
